Measurements taken from US6656906B1, “Hybrid polypeptides with enhanced pharmacokinetic properties” (Trimeris, Inc., priority 1998, dated 2003).
Where two headings read alike, the source gives them in different places. No end group written: not given here.

Key:
[1] = Rat pharmacokinetic studies, IV, fluorescence HPLC of plasma; assay type: in vivo, CD rats; conditions: for half-life relative to core peptide T1476 / half-life relative to core peptide T786: CD rats
Protocol: 250-300 g male CD rats, double jugular catheter, obtained from Charles River Laboratories were used. Peptides were injected in one jugular catheter in a volume of 200 μl of peptide solution (approximately 3.75 mg/ml), dosing solution concentration was determined using the Edelhoch method, (Edelhoch, 1967, Biochemistry 6:1948-1954) method and adjusted based on animal weight such that each animal received a dose of 2.5 mg/kg). Approximately 250-300 μl of blood was removed at predetermined time intervals (0, 15, 30 min and 1, 2, 4, 6, and 8 hours) and added to EDTA capiject tubes. Plasma was removed from pelleted cells upon centrifugation and either frozen or immediately processed for fluorescence HPLC analysis.
100 μl of sample plasma was added to 900 μl of precipitation buffer (acetonitrile, 1.0% TFA, detergent) resulting in precipitation of the majority of plasma proteins. Following centrifugation at 10,000 rpm for 10 min, 400 μl of the supernatant was removed and added to 600 μl of HPLC grade water. Serial dilutions were performed as dictated by concentration of peptide present in each sample in dilution buffer comprised of 40% precipitation buffer and 60% HPLC water. In addition to sample dilutions, serial dilutions of dosing solution were performed in buffer as well as in plasma and used to generate a standard curve relating peak area to known concentration of peptide. This curve was then used to calculate concentration of peptide in plasma taking into account all dilutions performed and quantity injected onto column.

FIG.5 = conditions: for half-life: CD, rat, plasma, iv, read-out: T1/2β (converted)
From the text: Table printed on a drawing sheet, FIG.5
The patent's description of the figure: FIG. 5.
First reader's note: The table is printed under a plasma concentration-time plot of the same two peptides, which is not copied.

RSV = experiment: Respiratory syncytial virus plaque reduction assay (Hep2 cells); assay type: cell-based
Protocol: All necessary dilutions of peptides were performed in clean, sterile 96-well TC plate. A total of eleven dilutions for each peptide and one control well containing no peptide were assembled. The final concentration range of peptide started at 50 μg/ml or 100 μg/ml, with a total of eleven two-fold dilutions. The RSV was prepared at a concentration of 100PFU/well in 100 μl 3% EMEM, as determined by a known titer of RSV. The virus is then added to all of the wells.
The media was removed from one sub-confluent 96-well plate of Hep2 cells. The material from the dilution plate was transferred onto the cell plates starting with row 1 and then transferring row 12, row 11, etc. until all rows were transferred. Plates were placed back into the incubator for 48 hours.
The cells were checked to ensure that syncytia were present in the control wells. Media was removed and approximately 50 μls of 0.25% Crystal Violet in methanol was added to each well. The wells were rinsed immediately in water to remove excess stain and allowed to dry. Using a dissecting microscope, the number of syncytia in each well was counted.

HIV-2 NIHZ = experiment: virus mediated cell-cell fusion assay (chronically infected CEM cells mixed with uninfected Molt-4 cells); assay type: cell-based
SIV isolate B670 = experiment: Magi-CCR-5 infectivity assay; assay type: cell-based
HIV-1 [2] = experiment: Human PBMC infectivity/neutralization assay; assay type: cell-based
Protocol: The prototypic assay used cell lines where the primary isolate assay utilizes PBMC, obtained through Interstate Blood Bank, activated for 2-3 days with a combination of OKT3 (0.5 μg/ml) and CD28 antibodies (0.1 μg/ml). The target cells were banded on lymphocyte separation medium (LSM), washed, and frozen. Cells were thawed as required and activated as indicated above a minimum of 2-3 days prior to assay. In this 96-well format assay, cells were at a concentration of 2×10^6/ml in 5% IL-2 medium and a final volume of 100 μl. Peptide stock solutions were made in DPBS (1 mg/ml). Peptide dilutions were performed in 20% FBS RPM1 1640/5% IL-2 complete medium.

HIV-1 9320 = experiment: In vivo HuPBMC-SCID mouse model of HIV-1 9320 infection; parameters: species or system SCID mice; conditions: 67 mg/kg total daily dose, IP, bid, 8 days
Protocol: Female SCID mice (5-7 weeks old) received 5-10×10^7 adult human PBMC injected intraperitoneally. Two weeks after reconstitution, mice were infected IP on day 0 with 10^3 TCID50 HIV-1 9320 (AZT-sensitive isolate A018). Treatment with peptides was IP, bid, beginning day −1 and continuing through day 6. The extent of infection in blood cells, splenocytes, lymph nodes, and peritoneal cells was assayed by quantitative co-culture with human PBMC blasts weekly for three consecutive weeks following animal exsanguinations and tissue harvest (day 7, approximately 12-18 hours following the last drug treatment). Co-culture supernatants were evaluated for HIV-1 p24 antigen production as a measure of virus infection (Immunotek Coulter kits and protocol).
Two weeks after reconstitution with HuPBMCs, mice were infected IP on day 0 with 10^3 TCID50 HIV-1 9320 passed in PBMCs (AZT-sensitive isolate A018). […] The extent of infection in blood cells, splenocytes, lymph nodes, and peritoneal cells was assayed by quantitative co-culture with human PBMC blasts weekly for three consecutive weeks following animal exsanguinations and tissue harvest (day 7, approx. 12 to 18 hours following last drug treatment). Co-culture supernatants were evaluated for HIV-1 p24 antigen production as a measure of virus infection.

HIV-1 [3] = test system: HIV-1
HIV-1 [4] = test system: HIV-1; remark: listed apart in the source
[5] = biological target: M41Δ178 (a truncated gp41 ectodomain fusion protein lacking the T20 amino acid sequence)
[6] = biological target: M41Δ178 (a truncated gp41 ectodomain fusion protein lacking the T20 amino acid sequence); remark: listed apart in the source

Molecule: Ac-WQEWEQKIQHWSYGLRPGWASLWEWF-NH2 [T1324]
- half-life compared to the T1323 core peptide ([1]; CD male rats): significantly increased half-life

Molecule: CC[C@H](C)[C@H](NC(=O)[C@H](CCC(N)=O)NC(=O)[C@H](C)NC(=O)[C@H](CCC(N)=O)NC(=O)[C@H](CCC(=O)O)NC(=O)[C@H](CC(C)C)NC(=O)[C@H](CC(C)C)NC(=O)[C@H](C)NC(=O)[C@@H](NC(=O)[C@@H](NC(=O)[C@H](CCCCN)NC(=O)[C@H](CCC(N)=O)NC(=O)[C@H](CCC(=O)O)NC(=O)[C@H](Cc1c[nH]c2ccccc12)NC(=O)[C@H](CCC(=O)O)NC(=O)[C@H](CCC(N)=O)NC(=O)[C@H](Cc1c[nH]c2ccccc12)NC(C)=O)[C@@H](C)CC)[C@@H](C)O)C(=O)N[C@@H](CCC(N)=O)C(=O)N[C@@H](CCC(N)=O)C(=O)N[C@@H](CCC(=O)O)C(=O)N[C@@H](CCCCN)C(=O)N[C@@H](CC(N)=O)C(=O)N[C@@H](CCC(=O)O)C(=O)N[C@@H](Cc1ccc(O)cc1)C(=O)N[C@@H](CCC(=O)O)C(=O)N[C@@H](CC(C)C)C(=O)N[C@@H](CCC(N)=O)C(=O)N[C@@H](CCCCN)C(=O)N[C@@H](CC(C)C)C(=O)N[C@@H](CC(=O)O)C(=O)N[C@@H](CCCCN)C(=O)N[C@@H](Cc1c[nH]c2ccccc12)C(=O)N[C@@H](C)C(=O)N[C@@H](CO)C(=O)N[C@@H](CC(C)C)C(=O)N[C@@H](Cc1c[nH]c2ccccc12)C(=O)N[C@@H](CCC(=O)O)C(=O)N[C@@H](Cc1c[nH]c2ccccc12)C(=O)N[C@@H](Cc1ccccc1)C(N)=O [T1249A1]
- AUC[0-8] (FIG.5): 71.43 µg/h/mL
- half-life (FIG.5): 283 min

Molecule: Ac-WQAWDEYDASISDVNEKINQALAYIREADELWEWF-NH2 [T1303, RSV hybrid polypeptide]
- half-life relative to core peptide T1476 [1]: greatly enhanced half-life
- ability to inhibit RSV infection (plaque formation of HEp2 cells) (RSV): inhibit RSV infection

Molecule: enfuvirtide [listing 1 of 2 here]
- fusion inhibition (HIV-2 NIHZ): 3610.0 ng/mL
- EC-50 (SIV isolate B670): 2313
- Vn/Vo = 0.1 (SIV isolate B670): >10000
- Vn/Vo = 0.1 (HIV-1 [2]; HIV-1 9320): 6000 ng/mL
- Vn/Vo = 0.1 (HIV-1 [2]; HIV-1 301593 (subtype B, SI)): 3500 ng/mL
- Vn/Vo = 0.1 (HIV-1 [2]; HIV-1 301714 (subtype B, NSI)): 8000 ng/mL
- Vn/Vo = 0.1 (HIV-1 [2]; HIV-1 302056 (subtype B, NSI)): 800 ng/mL
- Vn/Vo = 0.1 (HIV-1 [2]; HIV-1 302077 (subtype A)): 3300 ng/mL
- Vn/Vo = 0.1 (HIV-1 [2]; HIV-1 302143 (SI)): 1600 ng/mL
- Vn/Vo = 0.1 (HIV-1 [2]; HIV-1 G691-2 (AZT-R)): 1300 ng/mL
- Vn/Vo = 0.1 (HIV-1 [2]; HIV-1 IIIB, dose required to reduce virus titer by one log): 250 ng/mL
- Vn/Vo = 0.1 (HIV-1 [2]; HIV-1 pNL4-3): 3500 ng/mL
- Vn/Vo = 0.1 (HIV-1 [2]; HIV-1 pNL4-3 SM (T20-R)): >10000 ng/mL
- infectious virus in blood or lymph tissues (HIV-1 9320): not detectable
- virus in peritoneal washes and spleen preparation (HIV-1 9320): detected
- fusion inhibition (HIV-1 [3]; HIV-1 9320): 118.4 ng/mL
- fusion inhibition (HIV-1 [3]; HIV-1 G691-2 (AZT-R)): 406.0 ng/mL
- fusion inhibition (HIV-1 [3]; HIV-1 G762-3 (Pre-AZT)): 340.1 ng/mL
- fusion inhibition (HIV-1 [3]; HIV-1 IIIB): 2.5 ng/mL
- fusion inhibition (HIV-1 [3]; HIV-1 MN): 20.0 ng/mL
- fusion inhibition (HIV-1 [3]; HIV-1 RF): 6.1 ng/mL
- fusion inhibition (HIV-1 [3]; HIV-1 pNL4-3 SM (T20 Resistant)): 405.3 ng/mL
- EC-50 (HIV-1 [4]; HIV-1 9320): 11
- Vn/Vo = 0.1 (HIV-1 [4]; HIV-1 9320): 50
- EC-50 (HIV-1 [4]; HIV-1 301714 (subtype B, NSI)): 1065
- Vn/Vo = 0.1 (HIV-1 [4]; HIV-1 301714 (subtype B, NSI)): 4000
- EC-50 (HIV-1 [4]; HIV-1 G691-2 (AZT-R)): 13
- Vn/Vo = 0.1 (HIV-1 [4]; HIV-1 G691-2 (AZT-R)): 200
- EC-50 (HIV-1 [4]; HIV-1 IIIB): 42
- Vn/Vo = 0.1 (HIV-1 [4]; HIV-1 IIIB): 80
- EC-50 (HIV-1 [4]; HIV-1 pNL4-3): 166
- Vn/Vo = 0.1 (HIV-1 [4]; HIV-1 pNL4-3): 210
- EC-50 (HIV-1 [4]; HIV-1 pNL4-3 SM (T20-R)): 90
- Vn/Vo = 0.1 (HIV-1 [4]; HIV-1 pNL4-3 SM (T20-R)): 900
- EC-50 (HIV-1 [4]; HIV-1 pNL4-3 SM (T20-R) Duke): 410
- Vn/Vo = 0.1 (HIV-1 [4]; HIV-1 pNL4-3 SM (T20-R) Duke): 2600
- EC-50 (HIV-1 [4]; HIV-1 pNL4-3 STM (T20/T649-R)): >50000
- Vn/Vo = 0.1 (HIV-1 [4]; HIV-1 pNL4-3 STM (T20/T649-R)): >50000

Molecule: enfuvirtide [listing 2 of 2 here]
- half-life (FIG.5): 96 min

Molecule: Ac-WQAWDEYDASISQVNEKINQALAYIREADELWAWF-NH2 [T1302]
- half-life relative to core peptide T786 [1]: greatly enhanced half-life
- half-life relative to core peptide T1476 [1]: greatly enhanced half-life
- ability to inhibit RSV infection (plaque formation of HEp2 cells) (RSV): inhibit RSV infection

Molecule: Ac-VYPSDEYDASISQVNEEINQALAYIRKADELLENV-NH2 [T786, RSV core peptide]
- ability to inhibit RSV infection (plaque formation of HEp2 cells) (RSV): able to inhibit RSV infection

Molecule: Ac-WQEWDEYDASISQVNEKINQALAYIREADELWAWF-NH2 [T1301, Ac-WQEWDEYDASISQVNEKINOALAYIREADELWA WF-NH2]
- half-life relative to core peptide T786 [1]: greatly enhanced half-life
- half-life relative to core peptide T1476 [1]: greatly enhanced half-life
- ability to inhibit RSV infection (plaque formation of HEp2 cells) (RSV): inhibit RSV infection

Molecule: WMEWDREINKYTSLIHSLIEESQNQQEKNEQELL [DP397]
- inhibition of HIV-1 infection compared to T1249 (HIV-1 [4]; DH012-649 strain, at higher concentrations): increased inhibition of HIV-1 infection
- inhibition of HIV-1 infection compared to T1249 (HIV-1 [4]; RF-649 strain): increased inhibition of HIV-1 infection
- inhibition of HIV-1 infection compared to T649 (HIV-1 [4]; T649 resistant strains RF-649, DH012-649, 3′ETVQQQ, SIM-649): markedly increased inhibition of HIV-1 infection

Molecule: T20 (peptide)
- Kd [5]: 1 to 2 nM

B1: T1249 (Ac-[…]-NH2) (peptide)
peptide: WQEWEQKITALLEQAQIQQEKNEYELQKLDKWASLWEWF
modifications: not fully specified (N-terminus, C-terminus)
- Kd [6]: 1 to 2 nM
